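Interpolation was linear, between the two tested concentrations surrounding the appropriate level; five concentrations were tested over 48 hours in 96-well plates. GI50 = concentration required for 50% inhibition of growth. TGI: concentration producing complete growth inhibition.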
Key:
Experiment in all cases: growth of human tumour cells (NCI), 48 h
ACHN renal = test system: ACHN renal
MOLT-4 leukemia = test system: MOLT-4 leukemia
BT-549 breast = test system: BT-549 breast
CCRF-CEM leukemia = test system: CCRF-CEM leukemia
SF-295 CNS = test system: SF-295 CNS
HT29 colon = test system: HT29 colon
SF-539 CNS = test system: SF-539 CNS
SK-MEL-28 melanoma = test system: SK-MEL-28 melanoma
MDA-MB-231 breast = test system: MDA-MB-231 breast
786-0 renal = test system: 786-0 renal
EKVX NSCLC = test system: EKVX NSCLC
T-47D breast = test system: T-47D breast
HCT-116 colon = test system: HCT-116 colon
MALME-3M melanoma = test system: MALME-3M melanoma
SK-MEL-2 melanoma = test system: SK-MEL-2 melanoma
SNB-19 CNS = test system: SNB-19 CNS
OVCAR-8 ovarian = test system: OVCAR-8 ovarian
SF-268 CNS = test system: SF-268 CNS
TK-10 renal = test system: TK-10 renal
HL-60(TB) leukemia = test system: HL-60(TB) leukemia
UACC-62 melanoma = test system: UACC-62 melanoma
A549 NSCLC = test system: A549 NSCLC
HOP-62 NSCLC = test system: HOP-62 NSCLC
M14 melanoma = test system: M14 melanoma
LOX IMVI melanoma = test system: LOX IMVI melanoma
DU-145 prostate = test system: DU-145 prostate
NCI-H226 lung = test system: NCI-H226 lung
SK-OV-3 ovarian = test system: SK-OV-3 ovarian
UACC-257 melanoma = test system: UACC-257 melanoma
OVCAR-5 ovarian = test system: OVCAR-5 ovarian
IGROV1 ovarian = test system: IGROV1 ovarian
MDA-MB-435 = test system: MDA-MB-435
CAKI-1 renal = test system: CAKI-1 renal
NCI/ADR-RES ovarian = test system: NCI/ADR-RES ovarian
KM12 colon = test system: KM12 colon
HCC-2998 colon = test system: HCC-2998 colon
SW-620 colon = test system: SW-620 colon
MCF7 breast = test system: MCF7 breast
NCI-H522 lung = test system: NCI-H522 lung
U251 CNS = test system: U251 CNS
RPMI-8226 leukemia = test system: RPMI-8226 leukemia
HS 578T breast = test system: HS 578T breast
HOP-92 NSCLC = test system: HOP-92 NSCLC
PC-3 prostate = test system: PC-3 prostate
HCT-15 colon = test system: HCT-15 colon
NCI-H23 lung = test system: NCI-H23 lung
SK-MEL-5 melanoma = test system: SK-MEL-5 melanoma
RXF 393 renal = test system: RXF 393 renal
COLO 205 colon = test system: COLO 205 colon
OVCAR-3 ovarian = test system: OVCAR-3 ovarian
SNB-75 CNS = test system: SNB-75 CNS
NCI-H460 lung = test system: NCI-H460 lung
OVCAR-4 ovarian = test system: OVCAR-4 ovarian
SN12C renal = test system: SN12C renal
SR leukemia = test system: SR leukemia
UO-31 renal = test system: UO-31 renal

O=C(N/N=C/c1ccc([N+](=O)[O-])o1)c1ccc(O)cc1
GI50 (ACHN renal): 5.46 µM | TGI (ACHN renal): > 100 µM | GI50 (MOLT-4 leukemia): 5.69 µM | TGI (MOLT-4 leukemia): > 100 µM | GI50 (BT-549 breast): 10.7 µM | TGI (BT-549 breast): 28 µM | GI50 (CCRF-CEM leukemia): 0.804 µM | TGI (CCRF-CEM leukemia): 70.5 µM | GI50 (SF-295 CNS): 4.26 µM | TGI (SF-295 CNS): > 100 µM | GI50 (HT29 colon): 5.88 µM | TGI (HT29 colon): > 100 µM | GI50 (SF-539 CNS): 4.39 µM | TGI (SF-539 CNS): 17 µM | GI50 (SK-MEL-28 melanoma): 14.7 µM | TGI (SK-MEL-28 melanoma): > 100 µM | GI50 (MDA-MB-231 breast): 10.8 µM | TGI (MDA-MB-231 breast): > 100 µM | GI50 (786-0 renal): 9.17 µM | TGI (786-0 renal): 21.4 µM | GI50 (EKVX NSCLC): 8.46 µM | TGI (EKVX NSCLC): 42.9 µM | GI50 (T-47D breast): 6.96 µM | TGI (T-47D breast): 32.7 µM | GI50 (HCT-116 colon): 3.63 µM | TGI (HCT-116 colon): 12 µM | GI50 (MALME-3M melanoma): 1.11 µM | TGI (MALME-3M melanoma): 2.56 µM | GI50 (SK-MEL-2 melanoma): 11.3 µM | TGI (SK-MEL-2 melanoma): > 100 µM | GI50 (SNB-19 CNS): 5.39 µM | TGI (SNB-19 CNS): > 100 µM | GI50 (OVCAR-8 ovarian): 4.86 µM | TGI (OVCAR-8 ovarian): > 100 µM | GI50 (SF-268 CNS): 6.73 µM | TGI (SF-268 CNS): > 100 µM | GI50 (TK-10 renal): > 100 µM | TGI (TK-10 renal): > 100 µM | GI50 (HL-60(TB) leukemia): 2.48 µM | TGI (HL-60(TB) leukemia): 6.9 µM | GI50 (UACC-62 melanoma): 2.21 µM | TGI (UACC-62 melanoma): 6.93 µM | GI50 (A549 NSCLC): 4.71 µM | TGI (A549 NSCLC): > 100 µM | GI50 (HOP-62 NSCLC): 6.2 µM | TGI (HOP-62 NSCLC): > 100 µM | GI50 (M14 melanoma): 3.67 µM | TGI (M14 melanoma): 11.3 µM | GI50 (LOX IMVI melanoma): 2.15 µM | TGI (LOX IMVI melanoma): 16.9 µM | GI50 (DU-145 prostate): 6.38 µM | TGI (DU-145 prostate): > 100 µM | GI50 (NCI-H226 lung): 12.7 µM | TGI (NCI-H226 lung): > 100 µM | GI50 (SK-OV-3 ovarian): 17.5 µM | TGI (SK-OV-3 ovarian): > 100 µM | GI50 (UACC-257 melanoma): 4.97 µM | TGI (UACC-257 melanoma): 18.8 µM | GI50 (OVCAR-5 ovarian): 9.32 µM | TGI (OVCAR-5 ovarian): > 100 µM | GI50 (IGROV1 ovarian): 5.19 µM | TGI (IGROV1 ovarian): 23.1 µM | GI50 (MDA-MB-435): 1.65 µM | TGI (MDA-MB-435): 3.19 µM | GI50 (CAKI-1 renal): 7.26 µM | TGI (CAKI-1 renal): > 100 µM | GI50 (NCI/ADR-RES ovarian): 5.54 µM | TGI (NCI/ADR-RES ovarian): > 100 µM | GI50 (KM12 colon): 5.43 µM | TGI (KM12 colon): > 100 µM | GI50 (HCC-2998 colon): 4.98 µM | TGI (HCC-2998 colon): > 100 µM | GI50 (SW-620 colon): 3.85 µM | TGI (SW-620 colon): > 100 µM | GI50 (MCF7 breast): 2.84 µM | TGI (MCF7 breast): 14 µM | GI50 (NCI-H522 lung): 6.59 µM | TGI (NCI-H522 lung): 26.7 µM | GI50 (U251 CNS): 5.17 µM | TGI (U251 CNS): > 100 µM | GI50 (RPMI-8226 leukemia): 3.35 µM | TGI (RPMI-8226 leukemia): 48.3 µM | GI50 (HS 578T breast): 21.7 µM | TGI (HS 578T breast): > 100 µM | GI50 (HOP-92 NSCLC): 17.5 µM | TGI (HOP-92 NSCLC): 80.9 µM | GI50 (PC-3 prostate): 27 µM | TGI (PC-3 prostate): > 100 µM | GI50 (HCT-15 colon): 4.06 µM | TGI (HCT-15 colon): 25.4 µM | GI50 (NCI-H23 lung): 2.97 µM | TGI (NCI-H23 lung): 11.4 µM | GI50 (SK-MEL-5 melanoma): 1.47 µM | TGI (SK-MEL-5 melanoma): 2.88 µM | GI50 (RXF 393 renal): 12.9 µM | TGI (RXF 393 renal): 73.8 µM | GI50 (COLO 205 colon): 4.63 µM | TGI (COLO 205 colon): 16.1 µM | GI50 (OVCAR-3 ovarian): 8.33 µM | TGI (OVCAR-3 ovarian): 36.1 µM | GI50 (SNB-75 CNS): 17.4 µM | TGI (SNB-75 CNS): 83.2 µM | GI50 (NCI-H460 lung): 3.37 µM | TGI (NCI-H460 lung): > 100 µM | GI50 (OVCAR-4 ovarian): 1.72 µM | TGI (OVCAR-4 ovarian): 4.51 µM | GI50 (SN12C renal): 4.03 µM | TGI (SN12C renal): > 100 µM | GI50 (SR leukemia): 2.84 µM | TGI (SR leukemia): > 100 µM | GI50 (UO-31 renal): 23.7 µM | TGI (UO-31 renal): > 100 µM

Reference: PubChem BioAssay (NCI)
